Measurements from patent US20210228713A1, “TLR7 PEPTIDE CONJUGATES” (Apros Therapeutics, Inc., priority 2018, published 2021).
Residues, ends and D or L forms follow the SMILES beside them. No end group written: not given here. *: point of attachment. X1 = CCCC[C@@H](CCS(C)(=O)=O)Nc1nc(N)nc(C)c1Cc1cc(CC(=O)*)ccc1OC

Each compound was assayed against T1, human TLR7 (hTLR7) (Homo sapiens, UniProt Q9NYK1) (assay: HEK-Blue hTLR7 cell assay (NF-kB/AP-1 driven SEAP reporter)). Details: not given.
T1 construct: host or cells: HEK293 (HEK-Blue hTLR7)
T1 sequence (Q9NYK1 27-1049): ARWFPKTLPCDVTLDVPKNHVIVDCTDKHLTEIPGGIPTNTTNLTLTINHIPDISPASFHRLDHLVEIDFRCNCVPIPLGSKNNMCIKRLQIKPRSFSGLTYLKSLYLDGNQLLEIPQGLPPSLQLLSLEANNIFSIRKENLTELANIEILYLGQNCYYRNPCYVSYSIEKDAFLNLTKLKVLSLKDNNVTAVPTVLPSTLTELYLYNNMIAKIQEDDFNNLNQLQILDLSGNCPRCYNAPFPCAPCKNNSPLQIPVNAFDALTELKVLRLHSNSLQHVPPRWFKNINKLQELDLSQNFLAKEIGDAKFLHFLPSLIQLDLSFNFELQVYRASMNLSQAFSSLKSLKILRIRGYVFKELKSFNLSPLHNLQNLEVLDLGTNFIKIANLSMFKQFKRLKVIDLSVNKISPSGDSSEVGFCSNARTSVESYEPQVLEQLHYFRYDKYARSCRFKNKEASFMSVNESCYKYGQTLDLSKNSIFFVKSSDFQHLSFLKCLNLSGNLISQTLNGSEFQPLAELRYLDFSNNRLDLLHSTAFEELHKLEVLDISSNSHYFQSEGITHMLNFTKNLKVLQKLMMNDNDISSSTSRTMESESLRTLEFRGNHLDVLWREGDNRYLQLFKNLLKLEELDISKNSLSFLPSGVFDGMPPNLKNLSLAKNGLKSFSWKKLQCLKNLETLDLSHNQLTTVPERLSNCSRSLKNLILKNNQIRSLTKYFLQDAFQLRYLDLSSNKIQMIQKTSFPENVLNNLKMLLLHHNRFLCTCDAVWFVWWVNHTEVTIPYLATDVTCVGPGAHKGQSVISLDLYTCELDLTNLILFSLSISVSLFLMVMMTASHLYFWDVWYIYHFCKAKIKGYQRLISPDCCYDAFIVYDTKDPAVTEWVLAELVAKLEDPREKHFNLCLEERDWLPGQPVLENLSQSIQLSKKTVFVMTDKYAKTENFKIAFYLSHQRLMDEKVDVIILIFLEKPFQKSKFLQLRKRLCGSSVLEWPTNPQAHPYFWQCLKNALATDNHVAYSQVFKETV
Assay type: cell-based
From the text: HEK-Blue™ TLR7 cells were purchased from Invivogen (San Diego, Calif.). The following description was taken from the product information sheet.
“HEK-Blue™ hTLR7 cells are designed for studying the stimulation of human TLR7 (hTLR7) by monitoring the activation of NF-kB. HEK-Blue™ hTLR7 cells were obtained by co-transfection of the hTLR7 gene and an optimized secreted embryonic alkaline phosphatase (SEAP) reporter gene into HEK293 cells. The SEAP reporter gene is placed under the control of the IFN-b minimal promoter fused to five NF-kB and AP-1-binding sites. Stimulation with a TLR7 ligand activates NF-kB and AP-1 which induce the production of SEAP, which is detected by the HEK-Blue™ Detection cell culture medium.”
A typical assay protocol involved the following steps:
1. Cells were cultured according to the product information sheet.
2. 10 mM compound stock in DMSO were first diluted to 3 mM and then 3-fold serially diluted using DMSO to afford a 10-pt dilution.
3. 3 μl of the diluted DMSO were added to 57 μl HEK-Blue™ Detection media for a further 20-fold dilution.
4. 10 μl of the diluted compound in assay media were added into 40 μl cell culture (in HEK-Blue™ Detection media) in 384-well plate. Final cell concentration=8,000 cells per well.
5. The plates were incubated at 37° C. in 5% CO2 for 16 h. SEAP was determined using a spectrophotometer at 620-655 nm.
`CCCC[C@@H](CCS(C)(=O)=O)Nc1nc(N)nc(C)c1Cc1cc(CC(=O)N[C@@H](CC(N)=O)C(=O)N[C@@H](CCCNC(=N)N)C(=O)N[C@@H](Cc2ccccc2)C(=O)N[C@H](C(=O)N[C@@H](CO)C(=O)N[C@H](C(=O)N[C@@H](Cc2ccccc2)C(=O)N[C@@H](C)C(=O)N[C@@H](CO)C(=O)NCC(=O)N2CCC[C@H]2C(=O)N[C@@H](CO)C(=O)N[C@@H](CCC(N)=O)C(=O)N[C@@H](CCCCN)C(=O)N[C@H](C(=O)N[C@@H](CCC(N)=O)C(=O)N[C@@H](CC(C)C)C(=O)N[C@H](C(=O)N[C@@H](CC(N)=O)C(=O)N[C@@H](CC(N)=O)C(=O)N[C@@H](CC(N)=O)C(=O)NCC(=O)N[C@@H](CO)C(=O)N[C@@H](Cc2c[nH]c3ccccc23)C(=O)N[C@@H](Cc2c[nH]cn2)C(=O)O)C(C)C)[C@@H](C)CC)[C@@H](C)CC)C(C)C)ccc1OC` [*AP5] (X1-NRFVSIFASGPSQKIQLVNNNGSWH-OH) was tested, and the EC50 was 0.15 µM. `CSCC[C@H](NC(=O)CNC(=O)[C@@H](NC(=O)[C@H](CCCNC(=N)N)NC(=O)[C@@H](NC(=O)[C@H](CC(C)C)NC(=O)[C@H](C)NC(=O)[C@H](CCCNC(=N)N)NC(=O)[C@@H](NC(=O)[C@H](CCCNC(=N)N)NC(=O)[C@H](CCC(N)=O)NC(=O)[C@H](Cc1ccc(O)cc1)NC(=O)[C@@H](NC(=O)[C@@H](NC(=O)[C@H](CC(=O)O)NC(=O)[C@H](CC(N)=O)NC(=O)[C@H](CC(C)C)NC(=O)[C@H](CC(N)=O)NC(=O)[C@H](CO)NC(=O)[C@@H](N)Cc1c[nH]cn1)[C@@H](C)O)[C@@H](C)O)[C@@H](C)O)C(C)C)[C@@H](C)O)C(=O)N[C@@H](CC(=O)O)C(=O)N1CCC[C@H]1C(=O)N[C@@H](CCCNC(=N)N)C(=O)N[C@@H](CCSC)C(=O)N[C@@H](CS)C(=O)O` [AP1] gave an EC50 greater than 30 µM. With EQLSSVSSFERFEIFPKESSWPNHN [AP11] the EC50 was greater than 30 µM. For `CC[C@H](C)[C@H](NC(=O)[C@H](CCCCN)NC(=O)CNC(=O)[C@@H](NC(=O)[C@@H](NC(=O)[C@@H](NC(=O)[C@H](Cc1ccccc1)NC(=O)[C@H](C)NC(=O)[C@H](CCCNC(=N)N)NC(=O)CNC(=O)[C@@H]1CCCN1C(=O)CNC(=O)[C@H](CCCNC(=N)N)NC(=O)[C@H](CCC(N)=O)NC(=O)[C@@H](NC(=O)[C@H](CCCNC(=N)N)NC(=O)[C@@H](NC(=O)[C@H](CO)NC(=O)[C@H](CCCCN)NC(=O)[C@H](CCCNC(=N)N)NC(=O)[C@@H](N)CCCCN)[C@@H](C)CC)[C@@H](C)CC)C(C)C)[C@@H](C)O)[C@@H](C)CC)C(=O)NCC(=O)N[C@@H](CC(N)=O)C(=O)N[C@@H](CCSC)C(=O)N[C@@H](CCCNC(=N)N)C(=O)O` [AP6], the EC50 was greater than 30 µM. Compound ESLKISQAVHAAHAEINEAGREVVG [AP10] has an EC50 greater than 30 µM. DTIWALSVKYGVSVQDIMSWNNLSS [AP7] showed an EC50 greater than 10 µM.

Same assay, conditions: HEK TLR7 activity of Compound 1-peptide conjugates; read-out: EC50, Peptide - Compound 1 Conjugate
`CCCC[C@@H](CCS(C)(=O)=O)Nc1nc(N)nc(C)c1Cc1cc(CC(=O)N[C@@H](CCC(=O)O)C(=O)N[C@@H](CCC(N)=O)C(=O)N[C@@H](CC(C)C)C(=O)N[C@@H](CO)C(=O)N[C@@H](CO)C(=O)N[C@H](C(=O)N[C@@H](CO)C(=O)N[C@@H](CO)C(=O)N[C@@H](Cc2ccccc2)C(=O)N[C@@H](CCC(=O)O)C(=O)N[C@@H](CCCNC(=N)N)C(=O)N[C@@H](Cc2ccccc2)C(=O)N[C@@H](CCC(=O)O)C(=O)N[C@H](C(=O)N[C@@H](Cc2ccccc2)C(=O)N2CCC[C@H]2C(=O)N[C@@H](CCCCN)C(=O)N[C@@H](CCC(=O)O)C(=O)N[C@@H](CO)C(=O)N[C@@H](CO)C(=O)N[C@@H](Cc2c[nH]c3ccccc23)C(=O)N2CCC[C@H]2C(=O)N[C@@H](CC(N)=O)C(=O)N[C@@H](Cc2c[nH]cn2)C(=O)N[C@@H](CC(N)=O)C(=O)O)[C@@H](C)CC)C(C)C)ccc1OC` [*AP11] (X1-EQLSSVSSFERFEIFPKESSWPNHN-OH) showed an EC50 of 0.3 µM. `CCCC[C@@H](CCS(C)(=O)=O)Nc1nc(N)nc(C)c1Cc1cc(CC(=O)N[C@@H](CCC(=O)O)C(=O)N[C@@H](CO)C(=O)N[C@@H](CC(C)C)C(=O)N[C@@H](CCCCN)C(=O)N[C@H](C(=O)N[C@@H](CO)C(=O)N[C@@H](CCC(N)=O)C(=O)N[C@@H](C)C(=O)N[C@H](C(=O)N[C@@H](Cc2c[nH]cn2)C(=O)N[C@@H](C)C(=O)N[C@@H](C)C(=O)N[C@@H](Cc2c[nH]cn2)C(=O)N[C@@H](C)C(=O)N[C@@H](CCC(=O)O)C(=O)N[C@H](C(=O)N[C@@H](CC(N)=O)C(=O)N[C@@H](CCC(=O)O)C(=O)N[C@@H](C)C(=O)NCC(=O)N[C@@H](CCCNC(=N)N)C(=O)N[C@@H](CCC(=O)O)C(=O)N[C@H](C(=O)N[C@H](C(=O)NCC(=O)O)C(C)C)C(C)C)[C@@H](C)CC)C(C)C)[C@@H](C)CC)ccc1OC` [*AP10] (X1-ESLKISQAVHAAHAEINEAGREVVG-OH) was tested, and the EC50 was 0.21 µM.

Same assay, conditions: HEK TLR7 activity of unconjugated (naked) peptides; read-out: EC50, Peptide without Compound 1
LLTRILTIPQSLDSWWTSLNFLGGS [AP9] showed an EC50 greater than 30 µM. Work on `CC[C@H](C)[C@H](NC(=O)[C@H](CCCCN)NC(=O)CNC(=O)[C@@H](NC(=O)[C@@H](NC(=O)[C@H](Cc1ccccc1)NC(=O)[C@H](C)NC(=O)[C@H](CCCNC(=N)N)NC(=O)CNC(=O)[C@@H]1CCCN1C(=O)CNC(=O)[C@H](CCCNC(=N)N)NC(=O)[C@H](CCC(N)=O)NC(=O)[C@@H](NC(=O)[C@H](CCCNC(=N)N)NC(=O)[C@@H](NC(=O)[C@H](CO)NC(=O)[C@H](CCCCN)NC(=O)[C@H](CCCNC(=N)N)NC(=O)[C@@H](N)CCCCN)[C@@H](C)CC)[C@@H](C)CC)C(C)C)[C@@H](C)O)C(=O)NCC(=O)N[C@@H](CC(N)=O)C(=O)N[C@@H](CCSC)C(=O)N[C@@H](CCCNC(=N)N)C(=O)N[C@@H](CCC(N)=O)C(=O)O` [AP2] yielded an EC50 greater than 30 µM. NRFVSIFASGPSQKIQLVNNNGSWH [AP5] was tested, and the EC50 was greater than 30 µM. In the case of `CC[C@H](C)[C@H](NC(=O)[C@H](CC(C)C)NC(=O)[C@@H](NC(=O)[C@H](CC(C)C)NC(=O)[C@H](CC(C)C)NC(=O)[C@H](CC(C)C)NC(=O)CN)C(C)C)C(=O)N[C@@H](Cc1ccc(O)cc1)C(=O)N[C@@H](CC(C)C)C(=O)N[C@@H](Cc1ccc(O)cc1)C(=O)NCC(=O)N1CCC[C@H]1C(=O)N[C@@H](CO)C(=O)N[C@@H](CC(C)C)C(=O)N[C@@H](Cc1ccc(O)cc1)C(=O)N[C@@H](CCCNC(=N)N)C(=O)N[C@@H](CCCNC(=N)N)C(=O)N[C@@H](Cc1ccccc1)C(=O)N[C@@H](Cc1ccccc1)C(=O)N[C@@H](CO)C(=O)N[C@@H](CC(N)=O)C(=O)N[C@@H](CC(=O)O)C(=O)N[C@@H](CS)C(=O)N[C@@H](CS)C(=O)N[C@@H](CO)C(=O)O` [AP4] (H-GLLLVLIYLYGPSLYRRFFSNDCCS-OH), the EC50 is reported as greater than 30 µM. For TLTCGFADLMGYIPLVGAPLGGAAR [AP3], the EC50 was greater than 30 µM. LGRLMYDMYPHFMPTNLGPSEKRVW [AP8] gave an EC50 greater than 30 µM.

Same assay, conditions: HEK-Blue hTLR7 cells, 16 h incubation, SEAP read at 620-655 nm; read-out: HEK-TLR7 EC50
With `CCCC[C@@H](CCS(C)(=O)=O)Nc1nc(N)nc(C)c1Cc1cc(CC(=O)O)ccc1OC` [Compound 1, (S)-2-(3-((2-amino-4-methyl-6-((1-(methylsulfonyl)heptan-3-yl)amino)pyrimidin-5-yl)methyl)-4-methoxyphenyl)acetic acid] the EC50 was 0.1 µM. Work on `CCCC[C@@H](CCS(C)(=O)=O)Nc1nc(N)nc(C)c1Cc1cc(CC(=O)N[C@@H](C)C(=O)O)ccc1OC` [Compound 1-alanine conjugate] yielded an EC50 of 0.1 µM.
